Reference: ChEMBL document CHEMBL1201861, “Genomics of Drug Sensitity in Cancer screening data, Wellcome Trust Sanger Institute”

Assays:
DMS-53 = assay: cells; format: functional, cell-based, Homo sapiens;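 further: cell viability assay measuring growth inhibition of human DMS-53 cells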
Description: SANGER: Inhibition of human DMS-53 cell growth in a cell viability assay.

RMG-I = assay: cells; format: functional, cell-based, Homo sapiens;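 further: growth inhibition of human RMG-I cells, read out with a cell viability assay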
Description: SANGER: Inhibition of human RMG-I cell growth in a cell viability assay.

CAL-39 = assay: cells; format: functional, cell-based, Homo sapiens;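 further: cell viability assay measuring growth inhibition of CAL-39 cells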
Description: SANGER: Inhibition of human CAL-39 cell growth in a cell viability assay.

SK-MEL-28 = assay: cells; format: functional, cell-based, Homo sapiens;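 further: growth inhibition of human SK-MEL-28 cells, read out with a cell viability assay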
Description: SANGER: Inhibition of human SK-MEL-28 cell growth in a cell viability assay.

SK-CO-1 = assay: cells; format: functional, cell-based, Homo sapiens;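 further: growth inhibition of SK-CO-1 cells, determined by a viability readout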
Description: SANGER: Inhibition of human SK-CO-1 cell growth in a cell viability assay.

TYK-nu = assay: cells; format: functional, cell-based, Homo sapiens;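 further: growth inhibition of human TYK-nu cells, read out by a cell viability assay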
Description: SANGER: Inhibition of human TYK-nu cell growth in a cell viability assay.

HCC1143 = assay: cells; format: functional, cell-based, Homo sapiens;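 further: growth inhibition of human HCC1143 cells, read out with a cell viability assay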
Description: SANGER: Inhibition of human HCC1143 cell growth in a cell viability assay.

HO-1-N-1 = assay: cells; format: functional, cell-based, Homo sapiens;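 further: growth inhibition of human HO-1-N-1 cells, read out with a cell viability assay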
Description: SANGER: Inhibition of human HO-1-N-1 cell growth in a cell viability assay.

CAL-85-1 = assay: cells; format: functional, cell-based, Homo sapiens;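 further: growth inhibition of human CAL-85-1 cells, read out with a cell viability assay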
Description: SANGER: Inhibition of human CAL-85-1 cell growth in a cell viability assay.

COLO 205 = assay: cells; format: functional, cell-based, Homo sapiens
Description: SANGER: Inhibition of human COLO-205 cell growth in a cell viability assay.

IGR-1 = assay: cells; format: functional, cell-based, Homo sapiens;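 further: growth inhibition of human IGR-1 cells, read out with a cell viability assay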
Description: SANGER: Inhibition of human IGR-1 cell growth in a cell viability assay.

A204 = assay: cells; format: functional, cell-based, Homo sapiens;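 further: growth inhibition of human A204 cells, read out with a cell viability assay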
Description: SANGER: Inhibition of human A204 cell growth in a cell viability assay.

IM-9 = assay: SANGER: Inhibition of human IM-9 cell growth in a cell viability assay.; format: functional, cell-based
SiHa = assay: cells; format: functional, cell-based, Homo sapiens;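 further: Viability-based readout of growth inhibition in SiHa cells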
Description: SANGER: Inhibition of human SiHa cell growth in a cell viability assay.

HT-29 = assay: cells; format: functional, cell-based, Homo sapiens;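 further: growth inhibition of human HT-29 cells, read out by a cell viability assay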
Description: SANGER: Inhibition of human HT-29 cell growth in a cell viability assay.

Calu-1 = assay: SANGER: Inhibition of human Calu-1 cell growth in a cell viability assay.; format: functional, cell-based
PC-14 = assay: cells; format: functional, cell-based, Homo sapiens;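 further: cell viability assay measuring inhibition of PC-14 cell growth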
Description: SANGER: Inhibition of human PC-14 cell growth in a cell viability assay.

Caov-3 cell line = assay: cells; format: functional, cell-based, Homo sapiens;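 further: cell growth inhibition read out by a viability assay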
Description: SANGER: Inhibition of human Caov-3 cell growth in a cell viability assay.

HCC1419 = assay: cells; format: functional, cell-based, Homo sapiens;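 further: growth inhibition of human HCC1419 cells, read out as cell viability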
Description: SANGER: Inhibition of human HCC1419 cell growth in a cell viability assay.

Calu-3 = assay: cells; format: functional, cell-based, Homo sapiens;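 further: growth inhibition of human Calu-3 cells, determined with a cell viability assay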
Description: SANGER: Inhibition of human Calu-3 cell growth in a cell viability assay.

KOSC-2 = assay: cells; format: functional, cell-based, Homo sapiens;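 further: growth inhibition of KOSC-2 cells, read out by a cell viability assay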
Description: SANGER: Inhibition of human KOSC-2 cell growth in a cell viability assay.

NCI-H2405 = assay: cells; format: functional, cell-based, Homo sapiens;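 further: growth inhibition of the human cell line, read out with a cell viability assay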
Description: SANGER: Inhibition of human NCI-H2405 cell growth in a cell viability assay.

NCI-H2452 = assay: cells; format: functional, cell-based, Homo sapiens;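 further: growth inhibition of NCI-H2452 cells, read out with a cell viability assay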
Description: SANGER: Inhibition of human NCI-H2452 cell growth in a cell viability assay.

OAW-42 = assay: cells; format: functional, cell-based, Homo sapiens;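 further: growth inhibition of OAW-42 cells, read out with a cell viability assay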
Description: SANGER: Inhibition of human OAW-42 cell growth in a cell viability assay.

SCC-3 = assay: cells; format: functional, cell-based, Homo sapiens;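 further: cell viability assay measuring inhibition of SCC-3 cell growth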
Description: SANGER: Inhibition of human SCC-3 cell growth in a cell viability assay.

T47D = assay: cells; format: functional, cell-based, Homo sapiens;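 further: growth inhibition of human T47D cells, measured with a cell viability assay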
Description: SANGER: Inhibition of human T47D cell growth in a cell viability assay.

DV-90 = assay: cells; format: functional, cell-based, Homo sapiens;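 further: Read-out is a viability assay, with IC50 reflecting the drop in DV-90 cell growth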
Description: SANGER: Inhibition of human DV-90 cell growth in a cell viability assay.

NCI-H64 = assay: cells; format: functional, cell-based, Homo sapiens;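 further: growth inhibition of NCI-H64 cells, read out with a cell viability assay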
Description: SANGER: Inhibition of human NCI-H64 cell growth in a cell viability assay.

RT-4 = assay: SANGER: Inhibition of human RT4 cell growth in a cell viability assay.; format: functional, cell-based
CAL-72 = assay: cells; format: functional, cell-based, Homo sapiens;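 further: cell viability assay measuring inhibition of proliferation in the CAL-72 cell line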
Description: SANGER: Inhibition of human CAL-72 cell growth in a cell viability assay.

NCI-H2342 = assay: cells; format: functional, cell-based, Homo sapiens;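 further: growth inhibition of the cancer cell line, determined with a cell viability assay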
Description: SANGER: Inhibition of human NCI-H2342 cell growth in a cell viability assay.

PLC-PRF-5 = assay: cells; format: functional, cell-based, Homo sapiens;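 further: growth inhibition of human PLC-PRF-5 cells, read out with a viability assay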
Description: SANGER: Inhibition of human PLC-PRF-5 cell growth in a cell viability assay.

SW948 = assay: cells; format: functional, cell-based, Homo sapiens;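 further: growth inhibition of SW948 cells, read out with a cell viability assay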
Description: SANGER: Inhibition of human SW948 cell growth in a cell viability assay.

ABC-1 = assay: cells; format: functional, cell-based, Homo sapiens;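 further: growth inhibition of human ABC-1 cells, read out by a cell viability assay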
Description: SANGER: Inhibition of human ABC-1 cell growth in a cell viability assay.

MIA PaCa-2 = assay: cells; format: functional, cell-based, Homo sapiens;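 further: growth inhibition of MIA PaCa-2 cells, read out with a cell viability assay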
Description: SANGER: Inhibition of human MIA-PaCa-2 cell growth in a cell viability assay.

LC-1F = assay: cells; format: functional, cell-based, Homo sapiens;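 further: growth inhibition of human LC-1F cells, read out with a cell viability assay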
Description: SANGER: Inhibition of human LC-1F cell growth in a cell viability assay.

MHH-ES-1 = assay: cells; format: functional, cell-based, Homo sapiens
Description: SANGER: Inhibition of human MHH-ES-1 cell growth in a cell viability assay.

MDA-MB-157 = assay: cells; format: functional, cell-based, Homo sapiens
Description: SANGER: Inhibition of human MDA-MB-157 cell growth in a cell viability assay.

RH-18 = assay: cells; format: functional, cell-based, Homo sapiens; details: Homo sapiens, Rh18;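 further: growth inhibition of human RH-18 cells, read out with a cell viability assay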
Description: SANGER: Inhibition of human RH-18 cell growth in a cell viability assay.

NCI-H1975 = assay: cells; format: functional, cell-based, Homo sapiens; details: Homo sapiens, NCI-H1975
Description: SANGER: Inhibition of human NCI-H1975 cell growth in a cell viability assay.

D-566MG = assay: cells; format: functional, cell-based, Homo sapiens; details: Homo sapiens, D-566MG
SW 1116 = assay: cells; format: functional, cell-based, Homo sapiens; details: Homo sapiens, SW 1116;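 further: growth inhibition of SW1116 cells, read out with a cell viability assay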
Description: SANGER: Inhibition of human SW1116 cell growth in a cell viability assay.

Work on `Cc1cc([N+](=O)[O-])ccc1NS(=O)(=O)c1cc(Cl)ccc1Cl` yielded an IC50 (DMS-53; Homo sapiens, DMS-53) of 1.1 µM, an IC50 (RMG-I; Homo sapiens, RMG-I) of 11.5 µM and an IC50 (CAL-39; Homo sapiens, CAL-39) of 2.16 µM. It also gave an IC50 (SK-MEL-28; Homo sapiens, SK-MEL-28) of 0.355 µM, an IC50 (SK-CO-1; Homo sapiens, SK-CO-1) of 13.4 µM and an IC50 (TYK-nu; Homo sapiens, TYK-nu) of 2.01 µM. It also gave an IC50 (HCC1143; Homo sapiens, HCC1143) of 1.82 µM, an IC50 (HO-1-N-1; Homo sapiens, HO-1-N-1) of over 32 µM and an IC50 (CAL-85-1; Homo sapiens, CAL-85-1) of 3.61 µM. It also gave an IC50 (COLO 205; Homo sapiens, COLO 205) of 2.55 µM, an IC50 (IGR-1; Homo sapiens, IGR-1) of 2.01 µM and an IC50 (A204; Homo sapiens, A204) of 6.09 µM. The IC50 (IM-9; Homo sapiens, IM-9) was 14.1 µM, the IC50 (SiHa; Homo sapiens, SiHa) was 19.7 µM and the IC50 (HT-29; Homo sapiens, HT-29) was 5.53 µM. For the same molecule, the IC50 (Calu-1; Homo sapiens, Calu-1) was 8.64 µM, the IC50 (PC-14; Homo sapiens, PC-14) was 20 µM and the IC50 (Caov-3 cell line; Homo sapiens, Caov-3) was over 32 µM. For the same molecule, the IC50 (HCC1419; Homo sapiens, HCC1419) was 3.89 µM, the IC50 (Calu-3; Homo sapiens, Calu-3) was 2.87 µM and the IC50 (KOSC-2; Homo sapiens, KOSC-2) was over 32 µM. It also gave an IC50 (NCI-H2405; Homo sapiens, NCI-H2405) of 3.96 µM, an IC50 (NCI-H2452; Homo sapiens, NCI-H2452) of over 32 µM and an IC50 (OAW-42; Homo sapiens, OAW-42) of 2.78 µM. It also gave an IC50 (SCC-3; Homo sapiens, SCC-3) of over 32 µM, an IC50 (T47D; Homo sapiens, T47D) of 26.9 µM and an IC50 (DV-90; Homo sapiens, DV-90) of 1.94 µM. It also gave an IC50 (NCI-H64; Homo sapiens, NCI-H64) of over 32 µM, an IC50 (RT-4; Homo sapiens, RT-4) of over 32 µM and an IC50 (CAL-72; Homo sapiens, CAL-72) of over 32 µM. For the same molecule, the IC50 (NCI-H2342; Homo sapiens, NCI-H2342) was 4.93 µM, the IC50 (PLC-PRF-5; Homo sapiens, PLC-PRF-5) was 1.17 µM and the IC50 (SW948; Homo sapiens, SW948) was 12.3 µM. It also gave an IC50 (ABC-1; Homo sapiens, ABC-1) of 3.41 µM, an IC50 (MIA PaCa-2; Homo sapiens, MIA PaCa-2) of 0.601 µM and an IC50 (LC-1F; Homo sapiens, LC-1F) of over 32 µM. The IC50 (MHH-ES-1; Homo sapiens, MHH-ES-1) was 6.43 µM and the IC50 (MDA-MB-157; Homo sapiens, MDA-MB-157) was 8.59 µM.
BLEOMYCIN gave an IC50 (DMS-53; dms-53) of 319 µM, an IC50 (RMG-I; rmg-i) of 0.000132 µM and an IC50 (CAL-39; cal-39) of 0.000315 µM. For the same molecule, the IC50 (SK-MEL-28; sk-mel-28) was 1860 µM, the IC50 (SK-CO-1; sk-co-1) was 0.247 µM and the IC50 (TYK-nu; tyk-nu) was 3.03 µM. For the same molecule, the IC50 (HCC1143; hcc1143) was 27.2 µM, the IC50 (HO-1-N-1; ho-1-n-1) was 4.42 µM and the IC50 (CAL-85-1; cal-85-1) was 0.000178 µM. It also gave an IC50 (COLO 205; colo-205) of 3.24 µM, an IC50 (IGR-1; igr-1) of 2.35 µM and an IC50 (A204; a204) of 0.2 µM. It also gave an IC50 (IM-9; im-9) of 4.13 µM, an IC50 (SiHa; siha) of 5170 µM and an IC50 (HT-29; ht-29) of 0.535 µM. For the same molecule, the IC50 (Calu-1; calu-1) was 5.14 µM, the IC50 (PC-14; pc-14) was 0.183 µM and the IC50 (Caov-3 cell line; caov-3) was 20.5 µM. For the same molecule, the IC50 (HCC1419; hcc1419) was 253 µM, the IC50 (Calu-3; calu-3) was 6.19 µM and the IC50 (KOSC-2; kosc-2) was 319 µM. It also gave an IC50 (NCI-H2405; nci-h2405) of 4.28 µM, an IC50 (NCI-H2452; nci-h2452) of 2140 µM and an IC50 (OAW-42; oaw-42) of 0.832 µM. For the same molecule, the IC50 (SCC-3; scc-3) was 3.21 µM, the IC50 (T47D; t47d) was 168 µM and the IC50 (DV-90; dv-90) was 182 µM. It also gave an IC50 (NCI-H64; nci-h64) of 0.641 µM, an IC50 (RT-4; rt-4) of 0.00586 µM and an IC50 (CAL-72; cal-72) of 580 µM. For the same molecule, the IC50 (NCI-H2342; nci-h2342) was 0.0138 µM, the IC50 (PLC-PRF-5; plc-prf-5) was 281 µM and the IC50 (SW948; sw948) was 354 µM. It also gave an IC50 (ABC-1; abc-1) of 19.7 µM, an IC50 (MIA PaCa-2; mia paca-2) of 0.111 µM and an IC50 (LC-1F; lc-1f) of 49.4 µM. The IC50 (MHH-ES-1; mhh-es-1) was 0.0436 µM and the IC50 (MDA-MB-157; mda-mb-157) was 307 µM.
`CC(C)c1ccccc1Cc1cc(C(=O)Nc2ccc(S(=O)(=O)c3ccccc3C(C)(C)C)cc2)c(O)c(O)c1O` showed an IC50 (DMS-53; Homo sapiens, DMS-53) of 1.32 µM, an IC50 (RMG-I; Homo sapiens, RMG-I) of 0.207 µM and an IC50 (CAL-39; Homo sapiens, CAL-39) of 0.341 µM. The IC50 (SK-MEL-28; Homo sapiens, SK-MEL-28) was 1.39 µM, the IC50 (TYK-nu; Homo sapiens, TYK-nu) was 0.324 µM and the IC50 (HO-1-N-1; Homo sapiens, HO-1-N-1) was 1.42 µM. The IC50 (CAL-85-1; Homo sapiens, CAL-85-1) was 1.43 µM, the IC50 (IGR-1; Homo sapiens, IGR-1) was 0.301 µM and the IC50 (A204; Homo sapiens, A204) was 0.0978 µM. For the same molecule, the IC50 (SiHa; Homo sapiens, SiHa) was 0.261 µM, the IC50 (RH-18) was 1.07 µM and the IC50 (HT-29; Homo sapiens, HT-29) was 1.46 µM. For the same molecule, the IC50 (PC-14; Homo sapiens, PC-14) was 0.331 µM, the IC50 (HCC1419; Homo sapiens, HCC1419) was 0.918 µM and the IC50 (Calu-3; Homo sapiens, Calu-3) was 5.4 µM. It also gave an IC50 (KOSC-2; Homo sapiens, KOSC-2) of 0.496 µM, an IC50 (NCI-H2405; Homo sapiens, NCI-H2405) of 0.675 µM and an IC50 (NCI-H2452; Homo sapiens, NCI-H2452) of 0.754 µM. It also gave an IC50 (OAW-42; Homo sapiens, OAW-42) of 0.492 µM, an IC50 (T47D; Homo sapiens, T47D) of 0.691 µM and an IC50 (RT-4; Homo sapiens, RT-4) of 10.6 µM. It also gave an IC50 (NCI-H1975) of 1.38 µM, an IC50 (CAL-72; Homo sapiens, CAL-72) of 0.968 µM and an IC50 (NCI-H2342; Homo sapiens, NCI-H2342) of 0.267 µM. For the same molecule, the IC50 (D-566MG) was 0.116 µM, the IC50 (SW948; Homo sapiens, SW948) was 32.7 µM and the IC50 (ABC-1; Homo sapiens, ABC-1) was 0.316 µM. It also gave an IC50 (MIA PaCa-2; Homo sapiens, MIA PaCa-2) of 0.479 µM, an IC50 (SW 1116) of 8.45 µM and an IC50 (MHH-ES-1; Homo sapiens, MHH-ES-1) of 0.5 µM. It also gave an IC50 (MDA-MB-157; Homo sapiens, MDA-MB-157) of 0.841 µM.
